Reference: ChEMBL document CHEMBL5465560, “Selectivity Literature for EUbOPEN Chemogenomic Library” (2024)
pIC50: −log10 of the molar value.

Experiments:
[1] = biological target: T1, Calcium/calmodulin-dependent protein kinase type IV (Homo sapiens) (UniProt Q16566); conditions: at 10 µM
T1 sequence (whole entry): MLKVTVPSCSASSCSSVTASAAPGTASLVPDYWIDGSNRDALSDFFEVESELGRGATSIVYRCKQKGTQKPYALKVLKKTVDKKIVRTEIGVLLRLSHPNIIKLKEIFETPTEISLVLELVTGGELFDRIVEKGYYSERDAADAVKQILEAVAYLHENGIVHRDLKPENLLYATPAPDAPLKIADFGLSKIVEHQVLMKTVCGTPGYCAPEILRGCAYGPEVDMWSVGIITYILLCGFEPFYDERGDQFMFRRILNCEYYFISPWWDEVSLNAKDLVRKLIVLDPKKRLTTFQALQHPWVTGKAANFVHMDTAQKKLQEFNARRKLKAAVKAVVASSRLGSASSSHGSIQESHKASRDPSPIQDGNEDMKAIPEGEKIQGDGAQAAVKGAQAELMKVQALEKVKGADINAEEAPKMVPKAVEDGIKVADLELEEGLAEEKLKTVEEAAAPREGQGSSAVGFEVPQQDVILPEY

[2] = biological target: T2, Dual specificity protein kinase TTK (Homo sapiens) (UniProt P33981); experiment: Selectivity interaction (KinomeScan (DiscoverX)) EUB0000229b TTK; conditions: at 10 µM
T2 sequence (whole entry): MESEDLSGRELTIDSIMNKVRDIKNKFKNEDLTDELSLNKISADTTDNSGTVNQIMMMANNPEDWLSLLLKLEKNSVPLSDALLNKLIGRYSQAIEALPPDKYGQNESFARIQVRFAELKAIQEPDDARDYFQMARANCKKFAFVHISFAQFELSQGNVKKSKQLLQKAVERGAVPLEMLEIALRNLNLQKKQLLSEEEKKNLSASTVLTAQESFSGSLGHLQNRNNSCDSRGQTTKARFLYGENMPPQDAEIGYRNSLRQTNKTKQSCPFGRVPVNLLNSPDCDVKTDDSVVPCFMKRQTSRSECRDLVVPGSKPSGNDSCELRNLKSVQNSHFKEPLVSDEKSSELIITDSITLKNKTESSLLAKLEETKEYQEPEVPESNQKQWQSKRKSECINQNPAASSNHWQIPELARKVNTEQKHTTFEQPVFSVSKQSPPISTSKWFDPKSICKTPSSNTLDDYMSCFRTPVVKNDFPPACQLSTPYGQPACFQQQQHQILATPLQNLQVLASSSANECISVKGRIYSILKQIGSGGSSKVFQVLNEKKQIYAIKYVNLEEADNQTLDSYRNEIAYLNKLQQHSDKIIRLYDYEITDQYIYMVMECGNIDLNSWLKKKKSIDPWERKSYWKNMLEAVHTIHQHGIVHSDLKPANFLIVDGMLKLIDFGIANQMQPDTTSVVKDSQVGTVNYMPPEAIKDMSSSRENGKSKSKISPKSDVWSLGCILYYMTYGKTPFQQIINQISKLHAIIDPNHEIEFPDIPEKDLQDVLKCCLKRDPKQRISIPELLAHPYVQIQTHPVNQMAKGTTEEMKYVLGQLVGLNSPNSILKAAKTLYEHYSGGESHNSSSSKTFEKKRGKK

[3] = biological target: Serine/threonine-protein kinase PLK1 (Homo sapiens, UniProt P53350); experiment: Selectivity interaction (Kinase panel (KiNativ target engagement assay in Jurkat cells)) EUB0001635a PLK1; type: cell-based; conditions: Selectivity number of off-targets 0.0, Selectivity number of targets 233.0, Source Knowledge https://www.sciencedirect.com/science/article/pii/S2451945619300674?via%3Dihub, at 1 µM
Adenosine receptor A2a = Adenosine receptor A2a (Homo sapiens, UniProt P29274); experiment: Selectivity interaction (Adenosine 2A receptor binding assay, human recombinant ) EUB0000877a ADORA2A
Sequence of Adenosine receptor A2a (P29274 whole entry): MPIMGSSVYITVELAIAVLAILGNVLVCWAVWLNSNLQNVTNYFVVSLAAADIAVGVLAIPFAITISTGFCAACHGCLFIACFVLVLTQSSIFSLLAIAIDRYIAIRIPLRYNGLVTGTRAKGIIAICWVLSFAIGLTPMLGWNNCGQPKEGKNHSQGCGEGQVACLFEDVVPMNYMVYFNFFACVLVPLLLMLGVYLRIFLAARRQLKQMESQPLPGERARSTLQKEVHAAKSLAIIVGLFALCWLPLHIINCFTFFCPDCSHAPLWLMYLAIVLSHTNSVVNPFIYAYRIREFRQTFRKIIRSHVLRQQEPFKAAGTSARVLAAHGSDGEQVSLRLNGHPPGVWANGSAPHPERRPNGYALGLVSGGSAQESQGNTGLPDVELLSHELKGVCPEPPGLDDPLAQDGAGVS

[4] = biological target: Ribosomal protein S6 kinase alpha-2 (Homo sapiens) (UniProt Q15349); conditions: at 10 µM
Sequence of Ribosomal protein S6 kinase alpha-2 (Homo sapiens) (Q15349 whole entry): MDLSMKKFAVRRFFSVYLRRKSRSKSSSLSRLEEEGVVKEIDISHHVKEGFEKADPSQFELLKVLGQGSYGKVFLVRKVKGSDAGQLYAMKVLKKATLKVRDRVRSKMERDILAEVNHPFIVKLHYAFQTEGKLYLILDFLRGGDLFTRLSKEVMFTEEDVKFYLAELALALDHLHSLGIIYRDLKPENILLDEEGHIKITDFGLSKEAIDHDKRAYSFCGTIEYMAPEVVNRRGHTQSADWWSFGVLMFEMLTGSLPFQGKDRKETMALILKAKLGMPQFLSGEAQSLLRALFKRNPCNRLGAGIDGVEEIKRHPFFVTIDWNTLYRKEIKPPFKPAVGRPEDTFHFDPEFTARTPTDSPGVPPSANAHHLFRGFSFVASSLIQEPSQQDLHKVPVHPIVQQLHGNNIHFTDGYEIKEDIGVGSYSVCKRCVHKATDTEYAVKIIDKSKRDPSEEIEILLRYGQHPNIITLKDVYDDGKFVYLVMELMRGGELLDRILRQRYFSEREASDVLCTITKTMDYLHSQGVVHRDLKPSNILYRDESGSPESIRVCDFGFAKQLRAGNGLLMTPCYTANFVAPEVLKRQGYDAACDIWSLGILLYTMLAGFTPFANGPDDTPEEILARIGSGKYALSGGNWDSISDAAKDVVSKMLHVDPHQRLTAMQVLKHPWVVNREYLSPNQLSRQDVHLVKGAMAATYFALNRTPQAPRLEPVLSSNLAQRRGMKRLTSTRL

[5] = biological target: Eukaryotic translation initiation factor 2-alpha kinase 3 (Homo sapiens, UniProt Q9NZJ5)
Sequence of Eukaryotic translation initiation factor 2-alpha kinase 3 (Q9NZJ5 whole entry): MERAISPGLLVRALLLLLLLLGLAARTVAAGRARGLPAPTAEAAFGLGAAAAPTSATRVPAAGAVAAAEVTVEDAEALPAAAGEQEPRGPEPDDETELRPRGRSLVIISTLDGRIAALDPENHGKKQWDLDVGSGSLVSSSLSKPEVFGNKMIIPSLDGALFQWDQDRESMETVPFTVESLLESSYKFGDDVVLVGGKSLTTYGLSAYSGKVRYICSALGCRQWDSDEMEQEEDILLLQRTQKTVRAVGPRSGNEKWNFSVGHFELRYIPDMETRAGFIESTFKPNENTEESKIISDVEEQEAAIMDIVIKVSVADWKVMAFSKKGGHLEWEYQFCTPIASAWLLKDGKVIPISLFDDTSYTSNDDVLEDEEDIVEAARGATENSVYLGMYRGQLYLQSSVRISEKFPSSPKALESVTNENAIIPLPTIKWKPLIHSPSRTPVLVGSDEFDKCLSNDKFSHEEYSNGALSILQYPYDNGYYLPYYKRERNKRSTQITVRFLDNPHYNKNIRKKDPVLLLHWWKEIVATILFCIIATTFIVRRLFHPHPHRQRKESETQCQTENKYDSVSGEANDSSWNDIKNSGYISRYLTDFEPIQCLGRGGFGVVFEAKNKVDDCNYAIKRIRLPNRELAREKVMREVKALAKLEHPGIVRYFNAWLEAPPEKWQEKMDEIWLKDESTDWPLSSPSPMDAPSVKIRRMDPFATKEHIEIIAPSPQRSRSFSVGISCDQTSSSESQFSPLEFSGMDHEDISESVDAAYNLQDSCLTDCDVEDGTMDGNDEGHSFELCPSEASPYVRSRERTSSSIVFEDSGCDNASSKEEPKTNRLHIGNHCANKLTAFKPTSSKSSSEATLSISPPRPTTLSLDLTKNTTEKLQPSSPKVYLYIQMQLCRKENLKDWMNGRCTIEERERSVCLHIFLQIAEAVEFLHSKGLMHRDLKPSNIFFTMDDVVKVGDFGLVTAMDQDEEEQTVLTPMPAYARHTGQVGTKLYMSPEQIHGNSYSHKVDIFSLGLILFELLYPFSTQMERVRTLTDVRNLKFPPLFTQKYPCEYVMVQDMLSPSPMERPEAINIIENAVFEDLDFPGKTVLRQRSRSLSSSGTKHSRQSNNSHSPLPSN

[6] = biological target: Serine/threonine-protein kinase MARK2 (Homo sapiens) (UniProt Q7KZI7); experiment: Selectivity interaction (ActivX KiNativ screen (kinase selectivity in THP-1 cell lysates)) EUB0000639a MARK2; type: subcellular; conditions: lysate, at 0.01 µM
Sequence of Serine/threonine-protein kinase MARK2 (Homo sapiens) (Q7KZI7 whole entry): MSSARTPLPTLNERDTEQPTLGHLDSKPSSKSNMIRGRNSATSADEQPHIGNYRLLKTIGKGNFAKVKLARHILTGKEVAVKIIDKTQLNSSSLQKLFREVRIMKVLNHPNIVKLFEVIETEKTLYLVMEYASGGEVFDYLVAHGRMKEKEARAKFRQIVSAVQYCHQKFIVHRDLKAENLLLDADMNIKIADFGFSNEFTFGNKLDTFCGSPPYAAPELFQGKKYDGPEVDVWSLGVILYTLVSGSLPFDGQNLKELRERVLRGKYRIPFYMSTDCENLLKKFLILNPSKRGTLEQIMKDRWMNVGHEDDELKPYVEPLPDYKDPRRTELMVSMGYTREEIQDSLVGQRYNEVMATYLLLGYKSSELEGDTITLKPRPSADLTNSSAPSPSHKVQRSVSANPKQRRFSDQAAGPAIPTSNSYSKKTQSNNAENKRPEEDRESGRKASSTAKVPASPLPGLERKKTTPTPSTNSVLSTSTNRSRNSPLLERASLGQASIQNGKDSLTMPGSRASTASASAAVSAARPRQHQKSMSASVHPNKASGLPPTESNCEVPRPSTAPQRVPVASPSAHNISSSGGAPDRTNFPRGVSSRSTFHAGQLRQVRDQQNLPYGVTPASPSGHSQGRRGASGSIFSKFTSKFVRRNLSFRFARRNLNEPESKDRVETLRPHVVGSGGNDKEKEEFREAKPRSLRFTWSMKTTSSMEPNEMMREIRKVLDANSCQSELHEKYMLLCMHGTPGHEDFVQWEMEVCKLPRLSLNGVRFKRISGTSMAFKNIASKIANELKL

KCNE1 = KCNE1 (Homo sapiens, UniProt P15382); experiment: Selectivity interaction (Panel of kinases, GPCRs, ion channels and transporters (enzymatic assay)) EUB0000223bCl KCNE1
[7] = biological target: Myosin light chain kinase, smooth muscle (Homo sapiens, UniProt Q15746); experiment: Selectivity interaction (KinomeScan (DiscoverX)) EUB0000607a MYLK; conditions: at 10 µM
[8] = biological target: Dual specificity testis-specific protein kinase 1 (Homo sapiens) (UniProt Q15569); experiment: Selectivity interaction (KinomeScan (DiscoverX)) EUB0001049a TESK1; conditions: at 1 µM
[9] = biological target: T3, Casein kinase I isoform alpha-like (Homo sapiens) (UniProt Q8N752); conditions: at 10 µM
T3 sequence (whole entry): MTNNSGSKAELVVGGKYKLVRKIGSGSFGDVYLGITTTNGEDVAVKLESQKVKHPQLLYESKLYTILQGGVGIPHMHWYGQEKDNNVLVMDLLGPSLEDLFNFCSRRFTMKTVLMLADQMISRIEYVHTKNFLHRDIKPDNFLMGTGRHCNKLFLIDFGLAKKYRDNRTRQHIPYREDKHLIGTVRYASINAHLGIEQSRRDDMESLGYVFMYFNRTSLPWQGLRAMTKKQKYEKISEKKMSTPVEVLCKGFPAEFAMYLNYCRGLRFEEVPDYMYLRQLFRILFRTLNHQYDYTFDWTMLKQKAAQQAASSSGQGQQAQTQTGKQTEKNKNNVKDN

[10] = biological target: Calcium/calmodulin-dependent protein kinase type 1 (Homo sapiens) (UniProt Q14012); experiment: Selectivity interaction (KinomeScan (DiscoverX)) EUB0000045b CAMK1
Sequence of Calcium/calmodulin-dependent protein kinase type 1 (Homo sapiens) (Q14012 whole entry, looked up): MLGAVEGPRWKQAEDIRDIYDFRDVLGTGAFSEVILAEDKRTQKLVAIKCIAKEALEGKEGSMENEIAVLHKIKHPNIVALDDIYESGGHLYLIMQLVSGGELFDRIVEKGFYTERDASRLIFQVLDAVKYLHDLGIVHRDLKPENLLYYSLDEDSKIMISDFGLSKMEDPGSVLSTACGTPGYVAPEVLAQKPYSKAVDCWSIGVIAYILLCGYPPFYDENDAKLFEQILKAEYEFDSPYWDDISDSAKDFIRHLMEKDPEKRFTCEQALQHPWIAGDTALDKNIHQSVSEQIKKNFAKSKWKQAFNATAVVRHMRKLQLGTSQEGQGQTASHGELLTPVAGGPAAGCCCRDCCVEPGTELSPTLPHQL

[11] = biological target: Platelet-derived growth factor receptor beta (Homo sapiens, UniProt P09619); experiment: Selectivity interaction (KinomeScan (DiscoverX)) EUB0000045b PDGFRB
Sequence of Platelet-derived growth factor receptor beta (P09619 whole entry): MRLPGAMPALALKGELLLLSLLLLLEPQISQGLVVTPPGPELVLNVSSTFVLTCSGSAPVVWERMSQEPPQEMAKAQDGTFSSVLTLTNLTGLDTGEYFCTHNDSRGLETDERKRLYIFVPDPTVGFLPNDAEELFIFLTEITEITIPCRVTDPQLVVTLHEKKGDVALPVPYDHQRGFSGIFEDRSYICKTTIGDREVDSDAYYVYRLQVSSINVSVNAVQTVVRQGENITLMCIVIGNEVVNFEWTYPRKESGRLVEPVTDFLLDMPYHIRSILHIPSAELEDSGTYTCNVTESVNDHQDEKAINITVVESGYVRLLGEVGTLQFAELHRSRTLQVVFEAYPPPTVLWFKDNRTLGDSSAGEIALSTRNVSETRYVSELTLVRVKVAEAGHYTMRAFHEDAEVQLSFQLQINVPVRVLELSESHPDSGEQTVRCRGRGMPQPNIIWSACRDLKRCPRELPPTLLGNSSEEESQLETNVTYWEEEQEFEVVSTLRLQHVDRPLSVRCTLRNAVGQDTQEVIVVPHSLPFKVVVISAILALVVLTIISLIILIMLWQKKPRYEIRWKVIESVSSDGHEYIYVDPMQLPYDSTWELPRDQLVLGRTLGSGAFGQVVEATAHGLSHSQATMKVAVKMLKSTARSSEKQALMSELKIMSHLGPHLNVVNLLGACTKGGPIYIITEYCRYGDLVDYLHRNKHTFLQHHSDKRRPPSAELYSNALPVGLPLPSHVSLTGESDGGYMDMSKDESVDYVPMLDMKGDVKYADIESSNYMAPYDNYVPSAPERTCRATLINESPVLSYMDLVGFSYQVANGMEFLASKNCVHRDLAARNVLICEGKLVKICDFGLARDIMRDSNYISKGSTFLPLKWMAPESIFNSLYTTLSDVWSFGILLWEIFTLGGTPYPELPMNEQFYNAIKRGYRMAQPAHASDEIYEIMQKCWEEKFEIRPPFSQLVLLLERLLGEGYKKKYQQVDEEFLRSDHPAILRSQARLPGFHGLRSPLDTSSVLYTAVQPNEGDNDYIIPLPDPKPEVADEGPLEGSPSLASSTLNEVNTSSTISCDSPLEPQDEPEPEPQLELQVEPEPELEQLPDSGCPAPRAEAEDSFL

[12] = biological target: Mitogen-activated protein kinase 7 (Homo sapiens) (UniProt Q13164); experiment: Selectivity interaction (KinomeScan (DiscoverX)) EUB0000618a MAPK7; conditions: at 10 µM
[13] = biological target: Histone-lysine N-methyltransferase 2A (Homo sapiens) (UniProt Q03164); conditions: at 1 µM

Work on CCN(CC)CCCCNc1ncc2cc(-c3cc(OC)cc(OC)c3)c(NC(=O)NC(C)(C)C)nc2n1 yielded a % of control [1] of 100%.

For COc1cc(N(C)c2ccnc3ccc(C(F)(F)F)cc23)cc(OC)c1OC, the % binding [2] was 60%.

Compound C=CC(=O)Nc1ccc(C(=O)Nc2[nH]nc3c2CN(C(=O)N[C@H](CN(C)C)c2ccccc2)C3(C)C)cc1 has a % of engagement [3] of 5%.

For CCC(=O)N1CC[C@H](Nc2ncnc3c2CN(c2cnc(OC)c(C(F)(F)F)c2)CC3)C1 [LENIOLISIB], the pIC50 (Adenosine receptor A2a) was under 4.52.

Cc1cc([C@@H](C)Nc2ccccc2C(=O)O)c2nc(N3CCOCC3)cc(=O)n2c1 [AZD-6482] gave a % of control [4] of 98%.

For CCc1cccc(CC)c1NC(=O)c1nn(C)c2c1CCc1cnc(Nc3ccc(C(=O)NC4CCN(C)CC4)cc3OC(F)(F)F)nc1-2, the pIC50 [5] was under 5.00.

With CC[C@@H]1[C@H](F)C(=O)N[C@@H]1COc1nccc2cc(C(N)=O)c(OC)cc12 [ZIMLOVISERTIB] the % of inhibition [6] was -5.4%.

COc1cc(C(=O)N2CC[C@@H](O)[C@@H](N)C2)cc2nc(-c3cc4ccccc4n3CC3CC3)n(C)c12 gave an XC50 (KCNE1) of over 25.1 µM.

With CNC(=O)Nc1ccc(-c2nc(N3CC4CCC(C3)O4)c3cnn(C4CCC5(CC4)OCCO5)c3n2)cc1 the % of control [7] was 100%.

COc1cc(Nc2nc(C)cc(-c3cnn4nc(OC)ccc34)n2)cc(C(F)(F)F)c1 showed a % of control [8] of 73%.

In the case of COCC(=O)NC/C=C/c1ccc2ncnc(Nc3ccc(Oc4ccc(C)nc4)c(C)c3)c2c1 [CP-724714], the % of control [9] was 82%.

C=CC(=O)Nc1cc(-n2c(=O)ccc3cnc4ccc(-c5ccc(NS(C)(=O)=O)cc5)cc4c32)ccc1C showed a % of control ([10]; at 1 µM) of 100%, a % of control ([10]; at 10 µM) of 88% and a % of control ([11]; at 1 µM) of 76%. For the same compound, the % of control ([11]; at 10 µM) was 63%.

With O[C@H]1CC[C@H](Nc2ncc3nc(Nc4c(F)cc(F)cc4F)n([C@H]4CCOC4)c3n2)CC1 the % of control [12] was 90%.

With CNCCN1CCC(c2cc(CN(C)C(=O)c3cccc(Oc4ccccc4)c3)ccn2)CC1 the % activity [13] was over 90%.
